In brackets after ≈: the same amount, converted by molar mass.
Legend:
[1] = system: Cryptococcus neoformans; test: microbroth dilution MIC
[2] = system: Candida albicans; test: microbroth dilution MIC
[3] = system: Aspergillus fumigatus; test: microbroth dilution MIC
[4] = system: Plasmodium falciparum strain CSC-1 (Honduras); test: antimalarial assay, 3H-phenylalanine radiobioassay in human red blood cells; conditions: for IC50 Plasmodium falciparum: human red blood cells, 3H-phenylalanine, standard deviation of the mean, three experiments
[5] = system: Human Lung Cancer Epithelial A549; test: CellTiter 96 Aqueous Non-Radioactive Cell Proliferation Assay; format: cell-based; conditions: 48 hours, Table 7
Protocol: (§1) The munumbicins were then tested against three human cancer cell lines (ATCC) and human primary mammary epithelial cells (HMECs) (Clonetics; Biowhittaker, Walkersville, Md.) using a CellTiter 96® Aqueous Non-Radioactive Cell Proliferation Assay kit from Promega (Madison, Wis.). The cell lines were A-549 (lung epithelial carcinoma, ATCC CCL-185), ME-180 (cervical epithelial epidermoid carcinoma, ATCC HTB-33), and BT-20 (breast epithelial cancer, ATCC HTB-19), and were grown in the media recommended by ATCC. The primary mammary cells were cultured as recommended by the manufacturer in mammary epithelial cell growth media (MEGM®). […] After seeding, the cells were incubated for five hours at 37° C. before addition of the munumbicins. Two-fold serial dilutions of the munumbicins were made in the culture medium, and a volume equal to that of the seeded cells for each dilution was added to three wells of cells. Each plate also contained some wells with cells plus medium only and some wells with medium only. […] The A-549 and ME-180 cells were incubated for 48 hours. […] The plates were incubated at 37° C. for one to four hours, and the OD490 was determined. The OD reading of all wells was corrected for background by subtracting the reading of wells containing medium only. […] Kakadumycin A was tested against three human cancer cell lines (ATCC) and human primary mammary epithelial cells using the procedure described above for the munumbicins. Kadadumycin B was tested against one human cancer cell line.

[6] = system: Human Cervical Cancer Epithelial ME180; test: as above; format: cell-based; conditions: 48 hours, Table 7
Protocol: as §1

[7] = system: Candida albicans ATCC 90028; test: disk diffusion assay; format: cell-based; as to diameter of the zone of inhibition, Candida albicans ATCC 90028: key: R = resistant
[8] = system: Candida glabrata ATCC 2001; test: disk diffusion assay; format: cell-based; as to diameter of the zone of inhibition, Candida glabrata ATCC 2001: key: R = resistant
[9] = system: Candida krusei ATCC 6258; test: disk diffusion assay; format: cell-based
[10] = system: Candida tropicalis ATCC 750; test: disk diffusion assay; format: cell-based; as to diameter of the zone of inhibition, Candida tropicalis ATCC 750: key: R = resistant
[11] = system: Saccharomyces cerevisiae ATCC 9763; test: disk diffusion assay; format: cell-based; conditions: A3-5-1 10 micrograms; Flucytosine 10 micrograms; RPMI-glucose agar 35° C.
[12] = system: Cryptococcus neoformans ATCC 32045; test: disk diffusion assay; format: cell-based; conditions: A3-5-1 10 micrograms; Flucytosine 10 micrograms; RPMI-glucose agar 35° C.
[13] = system: Candida albicans ATCC 24433; test: disk diffusion assay; format: cell-based; as to diameter of the zone of inhibition, Candida albicans ATCC 24433: key: R = resistant
[14] = system: Candida parasilosis ATCC 22019; test: disk diffusion assay; format: cell-based, Candida parapsilosis; as to diameter of the zone of inhibition, Candida parasilosis ATCC 22019: key: R = resistant
[15] = system: Candida parasdosis ATCC 90018; test: disk diffusion assay; format: cell-based, Candida parapsilosis; as to diameter of the zone of inhibition, Candida parasdosis ATCC 90018: key: R = resistant
[16] = system: B. subtilis 1A757; test: microbe, parasite or virus in culture; format: cell-based, Bacillus subtilis
[17] = system: Cell wall synthesis in Bacillus subtilis; test: macromolecular synthesis whole cell assay, [3H]N-acetyl glucosamine incorporation; format: cell-based; conditions: 1×MIC
[18] = system: RNA synthesis in Bacillus subtilis; test: macromolecular synthesis whole cell assay, [3H]uridine incorporation; format: cell-based; conditions: 1×MIC
[19] = system: M. tuberculosis H37Rv (ATCC 25618) (drug sensitive); test: IC50 in Mycobacteria 7H11 agar; format: cell-based, Mycobacterium tuberculosis; conditions: Mycobacterium tuberculosis; 7H11 agar with 10% OADC
[20] = system: Enterococcus faecium ATCC 49624; test: disk diffusion assay; format: cell-based; conditions: 10 micrograms per disk; ciprofloxacin 5, vancomycin 30 micrograms per disk; 35° C.
[21] = system: Enterococcus faecium ATCC 51559; test: disk diffusion assay; format: cell-based; conditions: 10 micrograms per disk; ciprofloxacin 5, vancomycin 30 micrograms per disk; 35° C.
[22] = system: Staphyloccus aureus MH II Eli Lilly Co.; test: microbroth dilution MIC; conditions: drug sensitive strain
[23] = system: Shigella dysenteriae ATCC 11835; test: disk diffusion assay; format: cell-based; conditions: 10 micrograms per disk; 35° C.
[24] = system: Staphylococcus aureus ATCC 29213; test: disk diffusion assay; format: cell-based; conditions: 10 micrograms per disk; ciprofloxacin 5, vancomycin 30 micrograms per disk; 35° C.
[25] = system: Enterococcus faecalis ATCC 29212; test: disk diffusion assay; format: cell-based; conditions: 10 micrograms per disk; ciprofloxacin 5, vancomycin 30 micrograms per disk; 35° C.
[26] = system: S. epidermis ATCC 12228; test: disk diffusion assay; format: cell-based, Staphylococcus epidermidis; conditions: 10 micrograms per disk; 35° C.
[27] = system: Enterococcus faecalis ATCC 51299; test: disk diffusion assay; format: cell-based; conditions: 10 micrograms per disk; ciprofloxacin 5, vancomycin 30 micrograms per disk; 35° C.
[28] = system: Vibrio fischeri PIC 345; test: disk diffusion assay; format: cell-based; conditions: 10 micrograms per disk; ciprofloxacin 5, vancomycin 30 micrograms per disk; 35° C.
[29] = system: Escherichia coli ATCC 25922; test: disk diffusion assay; format: cell-based; conditions: 10 micrograms per disk; penicillin G 10 units per disk; 35° C. Also: key: R = resistant.
[30] = system: Streptococcus pneumoniae ATCC 49619; test: disk diffusion assay; format: cell-based; conditions: 10 micrograms per disk; ciprofloxacin 5, vancomycin 30 micrograms per disk; MHA with 5% dsb. and 5% CO2
[31] = system: human red blood cells
[32] = system: S. maltophilia ATCC 13637; test: disk diffusion assay; format: cell-based, Stenotrophomas maltophilia; conditions: 10 micrograms per disk; 35° C.
[33] = system: Pseudomonas syringae; test: microbroth dilution MIC, plant associated microorganisms; format: cell-based; conditions: PD broth
Protocol: (§2) Incubation was for 48 hours at 23° C. A plant pathogenic strain of Pseudomonas syringae was also tested using the same PD broth medium and with concentrations of colony forming units as given above. The organisms were obtained from the Montana State University plant pathogen culture collection administered by Dr. […] The relative activities against plant pathogenic fungi ranged from a few tenths of a microgram up to thirty micrograms. Table 2 provides the results of tests of inhibitory activity of the munumbicins against various plant-pathogenic fungi and one pathogenic bacterium. The data are reported as MIC values in micrograms/ml.

[34] = system: Phytophthora cinnamomi; test: as above; format: cell-based; conditions: PD broth, 48 hours at 23° C.
Protocol: as §2

[35] = system: Geotrichum candidum; test: as above; format: cell-based; conditions: PD broth, 48 hours at 23° C.
Protocol: as §2

[36] = system: Rhizoctonia solani; test: as above; format: cell-based; conditions: PD broth, 48 hours at 23° C.
Protocol: as §2

[37] = system: Pythium ultimum; test: as above; format: cell-based; conditions: PD broth, 48 hours at 23° C.
Protocol: as §2

[38] = system: Sclerotinia sclerotiorum; test: as above; format: cell-based; conditions: PD broth, 48 hours at 23° C.
Protocol: as §2

[39] = system: Pseudomonas aeruginosa ATCC 27853; test: disk diffusion assay; format: cell-based; conditions: 10 micrograms per disk; ciprofloxacin 5, vancomycin 30 micrograms per disk; 35° C. Also: key: R = resistant.
[40] = system: brine shrimp; test: brine shrimp assays; conditions: preliminary assays
[41] = system: Neisseria gonnorhea ATCC 49226; test: disk diffusion assay; format: cell-based; conditions: 10 micrograms per disk; ciprofloxacin 5, vancomycin 30 micrograms per disk; GC agar with 1% growth supplement with 5% CO2
[42] = system: Acinetobacter sp. ATCC 49137; test: disk diffusion assay; format: cell-based; conditions: 10 micrograms per disk; ciprofloxacin 5, vancomycin 30 micrograms per disk; grown at 30° C.
[43] = system: Human Primary Mammary Epithelial HMEC; test: CellTiter 96 Aqueous Non-Radioactive Cell Proliferation Assay; format: cell-based; conditions: 48 hours; Table 7
Protocol: as §1

[44] = system: Human Breast Cancer Epithelial BT-20; test: as above; format: cell-based; conditions: 96-144 hours; Table 7
Protocol: as §1

[45] = A3-5-1 10 micrograms, Flucytosine 10 micrograms, RPMI-glucose agar 35° C.

## C[C@@H]1[C@H](O)[C@@H](C)/C=C/C=C/C=C/C=C/C=C/C=C/C=C/[C@H](O[C@@H]2O[C@H](C)[C@@H](O)[C@H](N)[C@@H]2O)C[C@@H]2O[C@](O)(C[C@@H](O)C[C@@H](O)[C@H](O)CC[C@@H](O)C[C@@H](O)CC(=O)O[C@H]1C)C[C@H](O)[C@H]2C(=O)O [Amphotericin B, reference compound]
[1]
  MIC Cryptococcus neoformans: 0.13 micrograms/ml
[2]
  MIC Candida albicans: 1.25 micrograms/ml
[3]
  MIC Aspergillus fumigatus: 0.62 micrograms/ml

## CCN(CC)CCCC(C)Nc1ccnc2cc(Cl)ccc12 (stereo not drawn) [Chloroquine, reference compound]
[4]; Plasmodium falciparum, Erythrocyte, read-out: IC50 Plasmodium falciparum
  IC50: 7 ng/mL (≈ 0.0219 µM)
[4]
  IC50 Plasmodium falciparum: 7.0 ± 0 ng/mL (≈ 0.0219 µM)

## CC[C@H]1OC(=O)[C@H](C)[C@@H](O[C@H]2C[C@@](C)(OC)[C@@H](O)[C@H](C)O2)[C@H](C)[C@@H](O[C@@H]2O[C@H](C)C[C@H](N(C)C)[C@H]2O)[C@](C)(O)C[C@@H](C)C(=O)[C@H](C)[C@@H](O)[C@]1(C)O [Erythromycin, reference compound]
[5]; Homo sapiens, A549, read-out: IC50 Human Lung Cancer Epithelial A549
  IC50: > 40000 ng/mL
[6]; Homo sapiens, ME-180, read-out: IC50 Human Cervical Cancer Epithelial ME180
  IC50: > 40000 ng/mL

## Nc1[nH]c(=O)ncc1F [Flucytosine, reference compound]
[7]; [45]
  Disk Diffusion, Candida albicans 90028: 37 mm
[8]; [45]
  Disk Diffusion, Candida glabrata 2001: 53 mm
[9]; [45]
  Disk Diffusion, Candida krusei 6258: 7 mm
[10]; [45]
  Disk Diffusion, Candida tropicalis 750: 47 mm
[11]
  Disk Diffusion, Saccharomyces cerevisiae 9763: 50 mm
[12]
  Disk Diffusion, Cryptococcus neoformans 32045: 42 mm
[13]; [45]
  Disk Diffusion, Candida albicans 24433: 20 mm
[14]; [45]
  Disk Diffusion, Candida parapsilosis 22019: 46 mm
[15]; [45]
  Disk Diffusion, Candida parapsilosis 90018: 57 mm

## CO[C@H]1/C=C/O[C@@]2(C)Oc3c(C)c(O)c4c(O)c(c(/C=N/N5CCN(C)CC5)c(O)c4c3C2=O)NC(=O)/C(C)=C\C=C\[C@H](C)[C@H](O)[C@@H](C)[C@@H](O)[C@@H](C)[C@H](OC(C)=O)[C@@H]1C [Rifampicin, reference compound]
[16]
  1×MIC against Bacillus subtilis: 0.25 micrograms/ml
[17]; 5 min
  % [3H]N-acetyl glucosamine (Cell wall synthesis) incorporation of that of the untreated culture: 47%
[17]; 10 min
  % [3H]N-acetyl glucosamine (Cell wall synthesis) incorporation of that of the untreated culture: 48%
[18]; 5 min
  % [3H]uridine (RNA synthesis) incorporation of that of the untreated culture: 13%
[18]; 10 min
  % [3H]uridine (RNA synthesis) incorporation of that of the untreated culture: 15%
[19]
  IC50: < 1000 ng/mL

## Penicillin
[20]
  diameter of the zone of inhibition, Enterococcus faecium ATCC 49624: 21 mm
[21]
  diameter of the zone of inhibition, Enterococcus faecium ATCC 51559: 0 mm

## munumbicin D
[22]
  MIC Staphyloccus aureus MH II Eli Lilly Co.: 0.4 micrograms/ml
[1]
  MIC Cryptococcus neoformans: 10 micrograms/ml
[2]
  MIC Candida albicans: >10 micrograms/ml
[3]
  MIC Aspergillus fumigatus: 20 micrograms/ml
[7]; 10 micrograms per disk, 35° C.
  diameter of the zone of inhibition, Candida albicans ATCC 90028: R
[23]
  diameter of the zone of inhibition, Shigella dysenteriae ATCC 11835: R
[8]; 10 micrograms per disk, 35° C.
  diameter of the zone of inhibition, Candida glabrata ATCC 2001: R
[24]
  diameter of the zone of inhibition, Staphylococcus aureus ATCC 29213: 13 mm
[25]
  diameter of the zone of inhibition, Enterococcus faecalis ATCC 29212: 16 mm
[26]
  diameter of the zone of inhibition, S. epidermis ATCC 12228: 14 mm
[27]
  diameter of the zone of inhibition, Enterococcus faecalis ATCC 51299: 16 mm
[28]
  diameter of the zone of inhibition, Vibrio fischeri PIC 345: 12 mm
[4]
  IC50 Plasmodium falciparum: 4.5 ± 0.7 ng/mL
[29]
  diameter of the zone of inhibition, Escherichia coli ATCC 25922: R
[9]; 10 micrograms per disk, 35° C.
  diameter of the zone of inhibition, Candida krusei ATCC 6258: R
[10]; 10 micrograms per disk, 35° C.
  diameter of the zone of inhibition, Candida tropicalis ATCC 750: R
[30]
  diameter of the zone of inhibition, Streptococcus pneumoniae ATCC 49619: 16 mm
[31]
  concentration causing detectable lysis of human red blood cells: > 80 micrograms/ml
[32]
  diameter of the zone of inhibition, S. maltophilia ATCC 13637: R
[33]
  MIC Pseudomonas syringae: 0.2 micrograms/ml
[34]
  MIC Phytophthora cinnamomi: 15.6 micrograms/ml
[35]
  MIC Geotrichum candidum: 31.2 micrograms/ml
[36]
  MIC Rhizoctonia solani: 15.6 micrograms/ml
[37]
  MIC Pythium ultimum: 0.4 micrograms/ml
[38]
  MIC Sclerotinia sclerotiorum: 2.0 micrograms/ml
[39]
  diameter of the zone of inhibition, Pseudomonas aeruginosa ATCC 27853: R
[40]
  LC50 brine shrimp: 1.7 micrograms/ml
[41]
  diameter of the zone of inhibition, Neisseria gonnorhea ATCC 49226: 9 mm
[13]; 10 micrograms per disk, 35° C.
  diameter of the zone of inhibition, Candida albicans ATCC 24433: R
[42]
  diameter of the zone of inhibition, Acinetobacter sp. ATCC 49137: R
[14]; 10 micrograms per disk, 35° C.
  diameter of the zone of inhibition, Candida parasilosis ATCC 22019: R
[43]
  IC50 Human Primary Mammary Epithelial HMEC: 0.425 micrograms/ml
[5]
  IC50 Human Lung Cancer Epithelial A549: 2.6 micrograms/ml
[44]
  IC50 Human Breast Cancer Epithelial BT-20: 0.07 micrograms/ml
[6]
  IC50 Human Cervical Cancer Epithelial ME180: 0.2 micrograms/ml
[15]; 10 micrograms per disk, 35° C.
  diameter of the zone of inhibition, Candida parasdosis ATCC 90018: R
